Patent US8822533B1, “Methods and compositions for repelling and/or killing insects” (The United States of America, as represented by the …, priority 2011, dated 2014)

Legend:
[1] = system: Ae. aegypti + An. albimanus; test: Bite protection of FRACUs (Defender-M) treated with insecticides; assay type: in vivo; conditions: FRACU (Defender-M) sleeve; allethrin 0.085, bioresmethrin 0.106, etofenprox 0.101, bifenthrin 0.101 mg/cm^2
Description: Biological Evaluation: Bite protection assays were conducted with laboratory-reared 7-12 day old mosquitoes or sand flies. The species used throughout these studies are Aedes aegypti (Orlando, 1952) and Phlebotomus papatasi sand flies (Jerusalem, 1983). Females were pre-selected using either a hand draw box or a mechanical aspirator.
An assay was conducted by wearing sewn sleeves made from clothing material. Treated specimens were assayed with untreated controls to correct for the bite resistance afforded by material construction and composition. The untreated control was tested at the beginning of the experiment, followed by successively higher candidate repellent concentrations on sleeves. Sleeves were sewn from a cut out single ply trapezoidal pattern (33.2 cm×21 cm×25.5 cm height) of material. Sleeves were normally with a candidate repellent at the EPA permethrin label rate of 0.52% weight on (+5% tolerance) or less (0.125 mg/cm^2 for the 50/50 Nylon/Cotton (NYCO) Army Combat Uniform and 0108 mg./cm2 for the 65% Rayon/25% Para-aramid/10% Nylon Fire-Resistant Army Combat Uniform). Permethrin was 35:65cis: trans, 95.85% technical material. Experimental repellents were received as neat samples with <5% impurities. The treatment occurred by dissolution of repellent in suitable quantity of acetone to saturate the clothing, but minimizing excess solution. Excess solution was quantified and this amount of excess was then used to calculate the estimated amount of repellent applied to the material.
Insects were maintained in colony at approximately 78° F. and 60-80% RH. The photoperiod was 12:12. The mosquito cages were approximately 60000 cm^3 and each contained 175 to 225 female mosquitoes. […] Cages for sand fly work were slightly smaller (15000 cm^3) and constructed of acrylic for filming purposes and with screens on the exterior edges to allow air flow through the system. About 20-40 sand flies were released in cages for each assay. Assays started when the sleeved arm was inserted through the sleeve into the cage. Normally the hand was protected by a glove, but there were situations (i.e. sand fly data presented here) when the ability of a repellent to protect the untreated hand was determined. The assay periods were 15 min for the mosquitoes and 25-30 minutes for sand flies. The insects were allowed to land, probe and possibly bloodfeed during this time. At the conclusion of the experiment, all insects were knocked down or aspirated and the percentage that bloodfed of the total female test population in the cage was recorded. The protect level was calculated by Abbott's formula as a percentage reduction in bites compared to the untreated fabric control sleeve.
We were able to examine several treatments on the FRACU fabric sleeves (Table 7). […]

[2] = system: Ae. aegypti mosquitoes; test: Sleeve bite protection assay on treated uniform fabric, mosquitoes; assay type: in vivo, Aedes aegypti (Orlando, 1952)
Description: (§1) Biological Evaluation: Bite protection assays were conducted with laboratory-reared 7-12 day old mosquitoes or sand flies. The species used throughout these studies are Aedes aegypti (Orlando, 1952) and Phlebotomus papatasi sand flies (Jerusalem, 1983). Females were pre-selected using either a hand draw box or a mechanical aspirator. An assay was conducted by wearing sewn sleeves made from clothing material. Treated specimens were assayed with untreated controls to correct for the bite resistance afforded by material construction and composition. The untreated control was tested at the beginning of the experiment, followed by successively higher candidate repellent concentrations on sleeves. Sleeves were sewn from a cut out single ply trapezoidal pattern (33.2 cm×21 cm×25.5 cm height) of material. […] Permethrin was 35:65cis: trans, 95.85% technical material. Experimental repellents were received as neat samples with <5% impurities. The treatment occurred by dissolution of repellent in suitable quantity of acetone to saturate the clothing, but minimizing excess solution. Excess solution was quantified and this amount of excess was then used to calculate the estimated amount of repellent applied to the material. […] The photoperiod was 12:12. The mosquito cages were approximately 60000 cm^3 and each contained 175 to 225 female mosquitoes. […] Cages for sand fly work were slightly smaller (15000 cm^3) and constructed of acrylic for filming purposes and with screens on the exterior edges to allow air flow through the system. About 20-40 sand flies were released in cages for each assay. Assays started when the sleeved arm was inserted through the sleeve into the cage. Normally the hand was protected by a glove, but there were situations (i.e. sand fly data presented here) when the ability of a repellent to protect the untreated hand was determined. The assay periods were 15 min for the mosquitoes and 25-30 minutes for sand flies. The insects were allowed to land, probe and possibly bloodfeed during this time. At the conclusion of the experiment, all insects were knocked down or aspirated and the percentage that bloodfed of the total female test population in the cage was recorded. The protect level was calculated by Abbott's formula as a percentage reduction in bites compared to the untreated fabric control sleeve. Specific conditions for bioassays are noted with corresponding data contained in the Tables.

[3] = system: Mosquitoes, either Aedes aegypti (Liverpool) or Anopheles stephensi Liston; test: K&D module in vitro bioassay: biting protection, knockdown and mortality; assay type: in vivo; conditions: for mortality at 0.0025 µM / mortality at 0.025 µM: Aedes aegypti; for mortality at 0.0025 µM: 24 h; for mortality at 0.025 µM: 48 h
Description: In vitro bioassays were conducted as described by Klun et. al. (Klun, J. A., et al., J. Med. Entomol., 40: 293-299 (2005)). Each test replicate consisted of 3 treatments: a control (EtOH); a standard (Deet, 4.54 nmol/μl); and an experimental compound (pyrethroid analogs, 4.54 nmol/ul). The 3 treatments were randomly assigned to consecutive cells in 2, 6-cell reservoirs connected in series to a single water-bath pump; thus, 4 replicates could be tested/run. Tests were performed in an Air Science USA hood, with an air movement velocity of approx. 110-120 ft./min., temperature of 25-27° C., and RH of 15-25%. A 6-celled reservoir was connected to and heated by a constant-temperature (38° C.) water circulator (Lauda E100, Wobser GMGH and Co., Konigshofell, Germany).
Prior to each test, the upper surface of each reservoir was coated with a thin layer of high-vacuum silicone grease (Dow Corning Corp., Midland, Mich.), and the cells then filled (approx. 6 ml. capacity) or topped-off with either: (1) expired human red blood cells suspended in citrate-phosphate-dextrose-adenine (CPDA) solution, not more than 1 month past expiration date, and to which 110 mg ATP/35 ml. blood-CPDA had been added on the day of testing; or (2) CPDA+ATP×^−3, usually made up or diluted to 10^−3 ATP on the day of testing. The filled cells were then covered with an Edicol collagen membrane (Devro, Sandy Run, S.C.) strip, and then with a just-treated (110 μl of 4.54 nmol/μl treatment or control solution) organdy cloth (G Street Fabrics, Rockville, Md.) strip. Mosquitoes used in tests were either Aedes aegypti_(Liverpool) or Anopheles stephensi_Liston. K&D modules containing 5 adult females/cell were placed over a Teflon separator atop each reservoir; the sliding floors opened allowing access to the treated organdy cloth and membrane-covered cell; and the number of mosquitoes biting (proboscis inserted through the cloth) and/or observed to be engorged within each cell at the end of a 3-5 min. exposure period was recorded. Mosquitoes were used only once in a test, and then frozen and discarded.
Only tests in which 3 or more females fed in the control cell were analyzed, as lower feeding rates are indicative of substandard feeding readiness of that group of mosquitoes.
[…] Data were collected to record knockdown in 6 minutes, one hour and 24 hours post exposure.

[4] = system: bed bugs (Cimex lectularius); test: Bed bug mortality on treated filter paper; assay type: in vivo
Description: Knockdown data and mortality for volatile pyrethroids against bed bugs (Cimex lectularius): Compounds were dissolved in acetone to yield concentrations of 100 μg/cm^2, 10 μg/cm^2, and 1 μg/cm^2 and 47 mm filter paper disks were treated. Acetone-treated filter paper was used as a negative control. Mixed stages (nymphs and adults) of a laboratory colony of the bed bug Cimex lectularius were placed on the treated filter paper in glass Petri dishes and mortality was recorded 24 h later, at which time bed bugs were removed to untreated surfaces. 24 h after this transfer another assessment of mortality was made to see if any dead or moribund bugs had recovered.

[5] = system: bed bugs (Cimex lectularius); test: Bed bug mortality on treated filter paper; assay type: in vivo; conditions: 24 h
[6] = system: Phlebotomus papatasi sand flies; test: Sleeve bite protection assay on treated uniform fabric, sand flies; assay type: in vivo, Phlebotomus papatasi (Jerusalem, 1983); conditions: FRACU, permethrin sleeve 0.134 mg/cm^2 + treated strip, hand ungloved; strip TL-I-73 0.167, transfluthrin 0.161 mg/cm2
Description: as §1

[7] = ACU (50/50 NYCO) sleeve, glove on hand, 15 min, permethrin 0.118, transfluthrin 0.108, TL-I-107 0.107, TL-I-141 0.109, TL-I-105 0.107, TL-I-73 0.102 mg/cm^2
[8] = ACU (50/50 NYCO) sleeve, glove on hand, Abbott's formula vs untreated sleeve, concentrations as E1
[9] = ACU (50/50 NYCO) sleeve, glove on hand, concentrations as E1
[10] = ACU sleeve, stored one year then tested, concentrations as E1
[11] = ACU sleeve, treated specimens stored in refrigerator for one year then tested, concentrations as E1
[12] = ACU sleeve, No Glove on hand, permethrin 0.118, transfluthrin 0.108 mg/cm^2
[13] = FRACU sleeve, concentrations as E9
[14] = FRACU, untreated sleeve + treated strip, Ultrathon (34.34% DEET) on hand, TL-I-73 0.163, transfluthrin 0.158 mg/cm^2
[15] = FRACU, untreated sleeve + treated strip, hand gloved, TL-I-73 0.163, transfluthrin 0.158 mg/cm^2

Structure (SMILES) | Blood-fed # [2, 7] | Bite Protection (%) [2, 8] | Fed (%) [2, 9] | Bite Protection (%) [2, 10] | Fed (%) [2, 10] | Blood-fed # [2, 11] | Knockdown 6 min (%) ([3]; 2.5 nM\cm^2, K&D module) | Knockdown 24 hours (%) ([3]; 2.5 nM\cm^2, K&D module) | Not feeding 3 minutes (%) ([3]; 2.5 nM\cm^2, K&D module) | Knockdown 1 hour (%) ([3]; 2.5 nmol/cm^2, K&D module) | Knockdown 6 min (%) ([3]; 25 nM\cm^2, K&D module) | Knockdown 24 hours (%) ([3]; 25 nM\cm^2, K&D module) | Not feeding 3 minutes (%) ([3]; 25 nM\cm^2, K&D module) | Knockdown 1 hour (%) ([3]; 25 nmol/cm^2, K&D module) | mortality at 0.0025 µM [3] | mortality at 0.025 µM [3] | also measured
Cc1c(COC(=O)[C@@H]2[C@H](/C=C(\Cl)C(F)(F)F)C2(C)C)cccc1-c1ccccc1 (racemic) [Bifenthrin] |  |  |  |  |  |  |  |  |  |  |  |  |  |  |  |  | Bite Protection (% ± SE) (Ae. aegypti + An. albimanus) [1]: 91.5 ± 1.1%
CC(C)=C[C@@H]1[C@@H](C(=O)OCc2c(F)c(F)cc(F)c2F)C1(C)C [TL-I-107] | 0 # | 100% | 0.0% | 100% | 0.0% | 0 # | 100% | 100% | 100% | 100% | 100% | 100% | 100% | 100% | 100% | 100% | mortality at 1 µg/cm2 ([4]; Cimex lectularius, 24 h): 0%; mortality at 10 µg/cm2 ([4]; Cimex lectularius, 24 h): 100%; mortality at 100 µg/cm2 ([4]; Cimex lectularius, 24 h): 100%; mortality at 5 µg/cm2 [5]: 100%
CC1(C)[C@H](C=C(Cl)Cl)[C@H]1C(=O)OCc1c(F)c(F)cc(F)c1F [Transfluthrin, transfluthrin] | 0 # | 100% | 0.0% | 100% | 0.0% | 0 # | 100% | 100% | 100% | 100% | 100% | 100% | 100% | 100% | 100% | 100% | Blood-fed # [2, 12]: 4 #; Fed (%) [2, 12]: 2.1%; protecting non-repellent treated surfaces of skin (i.e. the hand) ([2]; ACU sleeve, glove removed from hand, compared with permethrin): superior to permethrin; bite protection ([2]; Defender-M FRACU sleeve at 0.52 mg/cm2): 100%; Blood-fed # ([2]; FRACU (65% Rayon, 10% Nylon, 25% Para-aramid) sleeve, permethrin 0.071, combination permethrin 0.031 + transfluthrin 0.038, transfluthrin 0.052 mg/cm^2): 0 #; Bite Protection (%) [2, 13]: 100.0%; Fed (%) [2, 13]: 0.0%; Bite Protection (%) ([2]; FRACU sleeve, concentrations as E9, listed as transfluthrin): 100%; Bite Protection (%) ([2]; FRACU, permethrin sleeve 0.134 mg/cm^2 + treated strip, hand gloved, strip TL-I-73 0.167, transfluthrin 0.161 mg/cm^2): 100%; Blood-fed # ([2]; FRACU, untreated sleeve + treated strip (20.5 cm × 2.6 cm) at wrist, hand gloved, TL-I-73 0.163, transfluthrin 0.158 mg/cm^2): 11 #; Blood-fed # ([2]; FRACU, untreated sleeve + treated strip, Ultrathon 12 hr repellent (34.34% DEET) on hand, TL-I-73 0.163, transfluthrin 0.158 mg/cm^2): 6 #; Bite Protection (%) [2, 14]: 89.2%; Fed (%) [2, 14]: 2.9%; Bite Protection (%) [2, 15]: 93.3%; Fed (%) [2, 15]: 5.5%; Bite Protection (%) [6]: significant protection from sand fly bites to the unprotected hand; mortality (in words) ([4]; at either 100 μg/cm^2 or 10 μg/cm^2): no mortality or mortality less than 100%; mortality (value in parentheses) ([4]; concentration not clearly stated for this group): 20%
